Laboratory results taken from the supplement of paper PMC10307832.

What was measured:
Assay in all cases: relative viability (nuclei count vs DMSO), 5 days (fraction); higher = more cells survive
NCI-H1944 = system: NCI-H1944
Method in brief: (§1)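 Lung cancer cell lines in 1536-well plates were dosed by pin tool the day after seeding, either with one drug alone or with a fixed anchor-drug dose plus five library-drug doses (not always all listed) in √10 steps. After 5 days, cells were fixed and their nuclei stained in one step (final 0.05% Triton X-100, 1% formaldehyde, 1 ug/ml Hoechst), then counted on 4× images. Relative viability is the nuclei count in treated wells divided by that in vehicle wells. Values are medians of duplicate plates.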

NCI-H1975 = system: NCI-H1975
Method in brief: as §1

NCI-H1734 = system: NCI-H1734
Method in brief: as §1

NCI-H2170 = system: NCI-H2170
Method in brief: as §1

PC-3 [JPC-3] = system: PC-3 [JPC-3]
Method in brief: as §1

A-427 = system: A-427
Method in brief: as §1

EKVX = system: EKVX
Method in brief: as §1

LOU-NH91 = system: LOU-NH91
Method in brief: as §1

NCI-H441 = system: NCI-H441
Method in brief: as §1

SW 900 = system: SW 900
Method in brief: as §1

NCI-H520 = system: NCI-H520
Method in brief: as §1

HCC-366 = settings: first compound 0.04 µM
Method in brief: as §1

SMILES: Clc1ccc(Nc2nnc(Cc3ccncc3)c3ccccc23)cc1 [Vatalanib] + Cc1cc(Nc2cc(N3CCN(C)CC3)nc(Sc3ccc(NC(=O)C4CC4)cc3)n2)n[nH]1 [Tozasertib] (partner 0.1 µM)
- relative viability (NCI-H1944; first compound 0.04 µM): 0.267
- relative viability (NCI-H1944; first compound 0.1265 µM): 0.247
- relative viability (NCI-H1944; first compound 0.4 µM): 0.262
- relative viability (NCI-H1944; first compound 1.265 µM): 0.266
- relative viability (NCI-H1944; first compound 4 µM): 0.235
- relative viability (NCI-H1975; first compound 0.04 µM): 0.835
- relative viability (NCI-H1975; first compound 0.1265 µM): 0.687
- relative viability (NCI-H1975; first compound 0.4 µM): 0.726
- relative viability (NCI-H1975; first compound 1.265 µM): 0.535
- relative viability (NCI-H1975; first compound 4 µM): 0.424
- relative viability (NCI-H1734; first compound 0.04 µM): 0.31
- relative viability (NCI-H1734; first compound 0.1265 µM): 0.232
- relative viability (NCI-H1734; first compound 0.4 µM): 0.278
- relative viability (NCI-H1734; first compound 1.265 µM): 0.276
- relative viability (NCI-H1734; first compound 4 µM): 0.249
- relative viability (NCI-H2170; first compound 0.04 µM): 0.768
- relative viability (NCI-H2170; first compound 0.1265 µM): 0.706
- relative viability (NCI-H2170; first compound 0.4 µM): 0.796
- relative viability (NCI-H2170; first compound 1.265 µM): 0.677
- relative viability (NCI-H2170; first compound 4 µM): 0.777
- relative viability (PC-3 [JPC-3]; first compound 0.04 µM): 0.876
- relative viability (PC-3 [JPC-3]; first compound 0.1265 µM): 0.864
- relative viability (PC-3 [JPC-3]; first compound 0.4 µM): 0.873
- relative viability (PC-3 [JPC-3]; first compound 1.265 µM): 0.835
- relative viability (PC-3 [JPC-3]; first compound 4 µM): 0.876
- relative viability (A-427; first compound 0.04 µM): 0.224
- relative viability (A-427; first compound 0.1265 µM): 0.21
- relative viability (A-427; first compound 0.4 µM): 0.232
- relative viability (A-427; first compound 1.265 µM): 0.206
- relative viability (A-427; first compound 4 µM): 0.2
- relative viability (EKVX; first compound 0.04 µM): 0.392
- relative viability (EKVX; first compound 0.1265 µM): 0.363
- relative viability (EKVX; first compound 0.4 µM): 0.427
- relative viability (EKVX; first compound 4 µM): 0.343
- relative viability (LOU-NH91; first compound 0.04 µM): 0.768
- relative viability (LOU-NH91; first compound 0.1265 µM): 0.634
- relative viability (LOU-NH91; first compound 1.265 µM): 0.652
- relative viability (LOU-NH91; first compound 4 µM): 0.621
- relative viability (NCI-H441; first compound 0.04 µM): 0.847
- relative viability (NCI-H441; first compound 0.1265 µM): 0.746
- relative viability (NCI-H441; first compound 0.4 µM): 0.643
- relative viability (NCI-H441; first compound 1.265 µM): 0.659
- relative viability (NCI-H441; first compound 4 µM): 0.598
- relative viability (SW 900; first compound 0.1265 µM): 0.563
- relative viability (SW 900; first compound 0.4 µM): 0.68
- relative viability (SW 900; first compound 1.265 µM): 0.482
- relative viability (SW 900; first compound 4 µM): 0.572
- relative viability (NCI-H520; first compound 0.04 µM): 0.443
- relative viability (NCI-H520; first compound 0.1265 µM): 0.385
- relative viability (NCI-H520; first compound 0.4 µM): 0.467
- relative viability (NCI-H520; first compound 1.265 µM): 0.443
- relative viability (NCI-H520; first compound 4 µM): 0.422
- relative viability (HCC-366): 0.119
